From patent US20090246273A1, “Ketorolac Sublingual Spray for the Treatment of Pain” (priority 2008, published 2009)

What was measured:
[1] = In vivo absorption of ketorolac spray from the sublingual cavity (plasma levels vs intravenous); set-up: species or system rabbit; conditions: rabbits
Protocol: These experiments determine the bioavailability of ketorolac after transmucosal administration to the sublingual tissue in rabbit and compare it to that after intravenous administration.
The transmucosal absorption of ketorolac was measured using an in vivo technique in rabbits. Following introduction of lidocaine local anesthesia, a catheter was placed in the marginal ear artery of the rabbit for blood sample collection. For intravenous administration, a catheter was placed in the marginal ear vein of the rabbit and ketorolac aqueous solution (0.5 mg/kg, 0.1 mL) was administered; a sterile drug solution was prepared by filtration (double 0.22 μm filters). A dose of […] ketorolac was injected into the marginal ear vein cannula followed by a 0.1 mL flush with 10% (v/v) heparin/normal saline solution to keep the cannula patent.
For sublingual spray administration, the ketorolac dose (3 mg/kg, 0.1 mL) of the ketorolac formulation was applied by spray to the sublingual mucosa of the rabbit.
Aliquot parts of 0.5 mL blood samples were collected at predetermined time points, collected into pre-heparinized tubes and immediately placed on ice. […]
Bioavailability of sublingually administered drug was calculated by comparing the plasma drug concentration between sublingual and intravenous delivery routes and expressed as a percentage of the intravenous bioavailability. […]

[2] = rapid metabolism of ketorolac; background on the intravenous mode of delivery; cited from earlier work

## O=C(c1ccccc1)c1ccc2n1CCC2C(=O)O (stereo not drawn) [ketorolac, 5-benzoyl-2,3-dihydro-1H-Pyrrolizine-1-carboxylic acid]
[1]; sublingual spray 3 mg/kg single dose, n=3
  time of peak plasma concentration following transmucosal administration: approximately 10 minutes
[1]; sublingual spray 3 mg/kg vs intravenous 0.5 mg/kg, over 180 minutes
  absorption following transmucosal administration through the sublingual route (comparing areas under the plasma concentration versus time curves): rapidly and completely absorbed
[2]
  half-life: 4 to 5 h
